Measurements reported in patent US20090069441A1, “Motuporamine Mimic Agents” (priority 2006, published 2009).
Where two headings read alike, the source gives them in different places.

How the values were obtained:
CHO cells = test: Cytotoxicity in CHO cells; format: cell-based, Chinese hamster; conditions: for IC50: Cricetulus griseus, CHO
Description: (§1) In terms of Table 1, L1210 cells are mouse leukemia cells and are the gold standard in terms of evaluating polyamine cytotoxicity data due to a plethora of prior data in this cell line for other polyamine structures. Clearly 7a was similar in all respects to 4a (Table 1). […] The lower the Ki value, the higher the affinity of the drug for the polyamine transporter (PAT) on the cell surface. Chinese hamster ovary (CHO) cells and a mutant line without an active PAT (CHO-MG) also evaluated the PAT selectivity of these drugs.
CHO and CHO-MG studies. Chinese hamster ovary (CHO) cells were chosen along with a mutant cell line (CHO-MG) in order to comment on how the synthetic conjugates gain access to cells. The CHO-MG cell line is polyamine-transport deficient and was isolated after selection for growth resistance to methylglyoxalbis(guanylhydrazone), MGBG, (CH3C[═N—NHC(═NH)NH2]CH[═N—NHC(═NH)NH2]) using a single-step selection after mutagenesis with ethylmethanesulfonate (Mandel et al., J. Cell. Physiol., 1978, 97, 335-344; Byers et al., Biochem. J. 1989, 263, 745-752).
In contrast, the parent CHO cell line represents a cell type with high PAT activity. Comparison of conjugate cytotoxicity in these two CHO lines provided an important screen to detect selective conjugate delivery via the PAT. For example, a conjugate with high utilization of the polyamine transporter would be very toxic to CHO cells, but less so to CHO-MG cells. In short, highly-selective PAT ligands should give high (CHO-MG/CHO) IC50 ratios.
Biological studies. Murine leukemia cells (L1210), CHO and CHO-MG cells were grown in RPMI medium supplemented with 10% fetal calf serum, glutamine (2 mM), penicillin (100 U/mL), streptomycin (50 μg/mL). L-Proline (2 μg/mL) was added to the culture medium for CHO-MG cells. Cells were grown at 37° C. under a humidified 5% CO2 atmosphere. […] Trypan blue staining was used to determine cell viability before the initiation of a cytotoxicity experiment. Cells in early to mid log-phase were used. IC50 determinations. Cell growth was assayed in sterile 96-well microtiter plates (Becton-Dickinson, Oxnard, Calif., USA). L1210 cells were seeded at 5e^4 cells/mL of medium (100 μL/well). CHO and CHO-MG cells were plated at 2e^3 cells/mL. Drug solutions (10 μL per well) of appropriate concentration were added at the time of seeding for L1210 cells and after an overnight incubation for the CHO cell lines. After exposure to the drug for 48 hr, cell growth was determined by measuring formazan formation from 3-(4,5-dimethylthiazol-2-yl)2,5-diphenyltetrazolium using a Titertek Multiskan MCC/340 microplate reader for absorbance (540 nm) measurements (Mosmann, T., J. Immunol. Methods 1983, 65, 55-63).

L1210 cells = test: Cytotoxicity (cell growth, MTT) in L1210 cells; format: cell-based, mouse; conditions: Mus musculus, read-out: L1210 IC50
Description: as §1
Biological Evaluation. Once synthesized, the conjugates were screened for cytotoxicity in L1210, CHO and CHO-MG cells. L1210 (mouse leukemia) cells were selected to enable comparisons with the published IC50 and Ki values for a variety of polyamine substrates. Chinese Hamster Ovary (CHO) cells were chosen along with a mutant PAT deficient cell line (CHO-MG) in order to comment on selective transport via the PAT (Wang et al, J. Med. Chem. 2003, 46, 2663-2671; Wang et al, J. Med. Chem. 2003, 46, 2672-2682; Wang et al., J. Med. Chem. 2003, 46, 5129-5138; Delcros et al., J. Med. Chem., 2002, 45, 5098-5111).
L1210 IC50 and Ki studies. […] The Ki values in Table 3 were determined for [^14C]spermidine uptake and reflect the affinity of the polyamine derivative for the polyamine transporter on the cell surface. With both parameters, one can determine whether high affinity for the transporter (e.g., low Ki value) translated into high cytotoxicity (e.g., low IC50 value), etc.
Biological studies. Murine leukemia cells (L1210), CHO and CHO-MG cells were grown in RPMI medium supplemented with 10% fetal calf serum, glutamine (2 mM), penicillin (100 U/mL), streptomycin (50 μg/mL). L-Proline (2 μg/mL) was added to the culture medium for CHO-MG cells. Cells were grown at 37° C. under a humidified 5% CO2 atmosphere. Aminoguanidine (AG, 2 mM) was added to the culture medium to prevent oxidation of the drugs by the enzyme (bovine serum amine oxidase) present in calf serum. Trypan blue staining was used to determine cell viability before the initiation of a cytotoxicity experiment. Cells in early to mid log-phase were used. IC50 determinations. Cell growth was assayed in sterile 96-well microtiter plates (Becton-Dickinson, Oxnard, Calif., USA). L1210 cells were seeded at 5e^4 cells/mL of medium (100 μL/well). CHO and CHO-MG cells were plated at 2e^3 cells/mL. Drug solutions (10 μL per well) of appropriate concentration were added at the time of seeding for L1210 cells and after an overnight incubation for the CHO cell lines. After exposure to the drug for 48 hr, cell growth was determined by measuring formazan formation from 3-(4,5-dimethylthiazol-2-yl)2,5-diphenyltetrazolium using a Titertek Multiskan MCC/340 microplate reader for absorbance (540 nm) measurements (Mosmann, T., J. Immunol. Methods 1983, 65, 55-63).

SMILES | IC50 (CHO cells; absence of AG, 48 h, read-out: CHO IC50 w/o AG) [nM] | IC50 (CHO cells; in the presence of AG, 48 h at 37° C., read-out: CHO IC50) [nM] | CHOMG/CHO IC50 ratio in the absence of AG (CHO cells; absence of AG) | IC50 Ratio (CHO-MG/CHO) w/o AG (CHO cells; absence of AG) | IC50 Ratio (CHO-MG/CHO), a measure of PAT selectivity (CHO cells; in the presence of AG) | CHOMG/CHO IC50 ratio (CHO cells; with AG) | IC50 Ratio (CHO-MG/CHO) with AG (CHO cells; with AG) | IC50 (L1210 cells; L1210, in the presence of AG, 48 h at 37° C.) [nM] | IC50 (L1210 cells; L1210 experiments, no added SPD) [nM] | IC50 (CHO cells; 48 h incubation, new data, read-out: CHO IC50) [nM] | IC50 Ratio (CHO-MG/CHO), a measure of PAT selectivity (CHO cells; new data) | IC50 (L1210 cells; L1210, 48 h incubation, new data) [nM]
NCCCCNCCCCNCc1c2ccccc2cc2ccccc12 [Compound 6b] | 1740 | 450 | 4 | 4 | 148 | 148 | 148 | 300 | 300 |  |  | 
CCN(CCCNCCCN)Cc1c2ccccc2cc2ccccc12 [Compound 7a, N-(3-Amino-propyl)-N′-anthracen-9-ylmethyl-N′-ethyl-propane-1,3-diamine] |  |  |  |  |  |  |  |  |  | 5300 | 0.8 | 2200
